Assay results: the NIST ThermoML archive (doi:10.1016/j.jct.2012.02.015)
± gives the expanded uncertainty stated by the source.

Details: 101.33 kPa, Liquid, Alternating current cell with electrodes

SMILES | electrical conductivity (1131 K) [S/m] | electrical conductivity (1136 K) [S/m] | electrical conductivity (1151 K) [S/m] | electrical conductivity (1169 K) [S/m] | electrical conductivity (1190 K) [S/m] | electrical conductivity (1198 K) [S/m] | electrical conductivity (1210 K) [S/m] | electrical conductivity (1221 K) [S/m] | electrical conductivity (1229 K) [S/m] | electrical conductivity (1233 K) [S/m] | electrical conductivity (1237 K) [S/m] | electrical conductivity (1245 K) [S/m] | electrical conductivity (1173 K) [S/m] | electrical conductivity (1184 K) [S/m] | electrical conductivity (1194 K) [S/m] | electrical conductivity (1206 K) [S/m] | electrical conductivity (1217 K) [S/m] | electrical conductivity (1232 K) [S/m] | electrical conductivity (1244 K) [S/m] | electrical conductivity (1269 K) [S/m] | further results
[Br-].[K+] [potassium bromide] | 190 ± 2 | 191 ± 2 | 194 ± 2 | 196 ± 2 | 200 ± 2 | 201 ± 2 | 202 ± 2 | 203 ± 2 | 204 ± 2 | 204 ± 2 | 205 ± 2 | 205 ± 2 |  |  |  |  |  |  |  |  | 
[F-].[Li+] [lithium fluoride] | 855 ± 9 | 858 ± 9 | 868 ± 9 | 877 ± 9 | 888 ± 9 | 892 ± 9 | 897 ± 9 | 899 ± 9 | 905 ± 9 | 907 ± 9 | 908 ± 9 | 911 ± 9 | 880 ± 9 | 886 ± 9 | 890 ± 9 | 896 ± 9 | 900 ± 9 | 907 ± 9 | 911 ± 9 | 918 ± 9 | electrical conductivity (1258 K): 916 ± 9 S/m; electrical conductivity (1267 K): 918 ± 9 S/m; electrical conductivity (1283 K): 923 ± 9 S/m
[Br-].[Rb+] [rubidium bromide] |  |  |  |  |  |  |  |  |  |  |  |  | 151 ± 2 | 152 ± 2 | 153 ± 2 | 154 ± 2 | 154 ± 2 | 155 ± 2 | 156 ± 2 | 157 ± 2 | electrical conductivity (1258 K): 157 ± 2 S/m
[I-].[Rb+] [rubidium iodide (RbI)] |  |  |  |  |  | 127 ± 1 | 128 ± 1 |  |  | 130 ± 1 |  |  |  |  |  |  |  |  |  |  | electrical conductivity (1126 K): 120 ± 1 S/m; electrical conductivity (1154 K): 122 ± 1 S/m; electrical conductivity (1166 K): 124 ± 1 S/m; electrical conductivity (1188 K): 126 ± 1 S/m; electrical conductivity (1216 K): 128 ± 1 S/m; electrical conductivity (1248 K): 132 ± 1 S/m; electrical conductivity (1260 K): 133 ± 1 S/m; electrical conductivity (1266 K): 133 ± 1 S/m; electrical conductivity (1297 K): 135 ± 1 S/m; electrical conductivity (1309 K): 136 ± 1 S/m
[I-].[K+] [potassium iodide] |  |  |  |  |  |  |  |  |  |  |  |  |  |  |  |  |  |  |  | 167 ± 2 | electrical conductivity (1109 K): 158 ± 2 S/m; electrical conductivity (1126 K): 160 ± 2 S/m; electrical conductivity (1143 K): 161 ± 2 S/m; electrical conductivity (1152 K): 163 ± 2 S/m; electrical conductivity (1160 K): 164 ± 2 S/m; electrical conductivity (1170 K): 165 ± 2 S/m; electrical conductivity (1176 K): 165 ± 2 S/m; electrical conductivity (1186 K): 166 ± 2 S/m; electrical conductivity (1203 K): 166 ± 2 S/m; electrical conductivity (1225 K): 167 ± 2 S/m; electrical conductivity (1236 K): 167 ± 2 S/m; electrical conductivity (1246 K): 168 ± 2 S/m; electrical conductivity (1252 K): 167 ± 2 S/m
